Test results taken from patent US10800792B2, “Inhibitors of Bruton's tyrosine kinase and method of their use” (JANSSEN PHARMACEUTICA NV, priority 2015, dated 2020).

Molecular target: unphosphorylated-BTK kinase domain (UP-BTK), GST-tagged human BTK (389-659aa) (Homo sapiens (Human), UniProt Q06187)
Experiment: BTK kinase Lanthascreen binding assay
Settings: Lanthascreen tracer competition, 60 minutes incubation, pIC50 = negative log of the IC50 in molar; for IC50: read-out: BTK_I_binding pIC50 (converted)
Outline: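 Tracer-displacement binding assay against the non-phosphorylated enzyme, read by Lanthascreen. Reported: pIC50.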

Chain of unphosphorylated-BTK kinase domain (UP-BTK), GST-tagged human BTK (389-659aa) (Q06187 389-659): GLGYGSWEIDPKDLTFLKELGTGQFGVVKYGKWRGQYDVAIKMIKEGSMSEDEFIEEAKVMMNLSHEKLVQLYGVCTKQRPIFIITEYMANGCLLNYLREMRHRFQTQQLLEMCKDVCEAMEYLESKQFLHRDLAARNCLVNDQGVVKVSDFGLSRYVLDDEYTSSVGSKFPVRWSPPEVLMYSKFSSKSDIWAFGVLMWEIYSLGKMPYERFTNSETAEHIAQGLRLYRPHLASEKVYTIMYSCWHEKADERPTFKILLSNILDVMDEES

Row | Compound | BTK_I_binding pIC50 | IC50 [nM]
1 | C=CC(=O)N1CCC[C@@H](NC(=O)c2sc3nccc4c3c2NC(=O)N4c2cnc(Oc3ccccc3)nc2C)C1 (single isomer, unassigned) [Example 746, (R)—N-(1-Acryloylpiperidin-3-yl)-5-(*S)-(4-methyl-2-phenoxypyrimidin-5-yl)-4-oxo-4,5-dihydro-3H-1-thia-3,5,8-triazaacenaphthylene-2-carboxamide] | 8.1 | –
2 | C=CC(=O)N[C@@H]1COC[C@@H]1NC(=O)c1sc2nccc3c2c1NC(=O)N3c1cnc(Oc2ccccc2)cc1C (single isomer, unassigned) [Example 752, N-((*3R,*4S)-4-Acrylamidotetrahydrofuran-3-yl)-5-(*S)-(4-methyl-6-phenoxypyridin-3-yl)-4-oxo-4,5-dihydro-3H-1-thia-3,5,8-triazaacenaphthylene-2-carboxamide] | – | 398
3 | C=CC(=O)N1CCC[C@@H](NC(=O)c2sc3nccc4c3c2NC(=O)N4c2ccc(OC(C)C)nc2C)C1 (single isomer, unassigned) [Example 753, (R)—N-(1-Acryloylpiperidin-3-yl)-5-(*S)-(6-isopropoxy-2-methylpyridin-3-yl)-4-oxo-4,5-dihydro-3H-1-thia-3,5,8-triazaacenaphthylene-2-carboxamide] | 6.2 | –
4 | C=CC(=O)N1CCC[C@@H](NC(=O)c2sc3nccc4c3c2NC(=O)N4c2ccc(OC(C)C)nc2C)C1 (single isomer, unassigned) [Example 757, (R)—N-(1-Acryloylpiperidin-3-yl)-5-(*R)-(6-isopropoxy-2-methylpyridin-3-yl)-4-oxo-4,5-dihydro-3H-1-thia-3,5,8-triazaacenaphthylene-2-carboxamide] | <6 | –
5 | Cc1cc(OCC(C)C)ncc1N1C(=O)Nc2c(C(=O)N[C@@H]3CCCNC3)sc3nccc1c23 (single isomer, unassigned) [Example 759, (R)-5-(*S)-(6-Isobutoxy-4-methylpyridin-3-yl)-4-oxo-N-(piperidin-3-yl)-4,5-dihydro-3H-1-thia-3,5,8-triazaacenaphthylene-2-carboxamide] | 6.7 | –
6 | Cc1cc(OCC(C)C)ncc1N1C(=O)Nc2c(C(=O)N[C@@H]3CCCNC3)sc3nccc1c23 (single isomer, unassigned) [Example 760, (R)-5-(*R)-(6-Isobutoxy-4-methylpyridin-3-yl)-4-oxo-N-(piperidin-3-yl)-4,5-dihydro-3H-1-thia-3,5,8-triazaacenaphthylene-2-carboxamide] | <6 | –
7 | Cc1cc(OC2CCCC2)ncc1N1C(=O)Nc2c(C(=O)N[C@@H]3CCCNC3)sc3nccc1c23 (single isomer, unassigned) [Example 761, (R)-5-(*S)-(6-(Cyclopentyloxy)-4-methylpyridin-3-yl)-4-oxo-N-(piperidin-3-yl)-4,5-dihydro-3H-1-thia-3,5,8-triazaacenaphthylene-2-carboxamide] | 7.1 | –
8 | Cc1cc(OC2CCCC2)ncc1N1C(=O)Nc2c(C(=O)N[C@@H]3CCCNC3)sc3nccc1c23 (single isomer, unassigned) [Example 762, (R)-5-(*R)-(6-(Cyclopentyloxy)-4-methylpyridin-3-yl)-4-oxo-N-(piperidin-3-yl)-4,5-dihydro-3H-1-thia-3,5,8-triazaacenaphthylene-2-carboxamide] | <6 | –
9 | C=CC(=O)N1CCC[C@@H](NC(=O)c2sc3nccc4c3c2NC(=O)N4c2cnc(OC3CCCC3)cc2C)C1 (single isomer, unassigned) [Example 768, (R)—N-(1-Acryloylpiperidin-3-yl)-5-(*S)-(6-(cyclopentyloxy)-4-methylpyridin-3-yl)-4-oxo-4,5-dihydro-3H-1-thia-3,5,8-triazaacenaphthylene-2-carboxamide] | 8.2 | –
10 | C=CC(=O)N1CCC[C@@H](NC(=O)c2sc3nccc4c3c2NC(=O)N4c2cnc(OC3CCCC3)cc2C)C1 (single isomer, unassigned) [Example 769, (R)—N-(1-Acryloylpiperidin-3-yl)-5-(*R)-(6-(cyclopentyloxy)-4-methylpyridin-3-yl)-4-oxo-4,5-dihydro-3H-1-thia-3,5,8-triazaacenaphthylene-2-carboxamide] | 6.2 | –
11 | Cc1cc(Oc2ccccc2)ccc1N1C(=O)Nc2c(C(=O)N[C@@H]3CCCN(C(=O)C(C#N)=CC4(C)COC4)C3)sc3nccc1c23 (single isomer, unassigned) [Example 782, (R,EZ)—N-(1-(2-Cyano-3-(3-methyloxetan-3-yl)acryloyl)piperidin-3-yl)-5-(*S)-(2-methyl-4-phenoxyphenyl)-4-oxo-4,5-dihydro-3H-1-thia-3,5,8-triazaacenaphthylene-2-carboxamide] | 7.7 | –
12 | C=CC(=O)N1CCC[C@@H](NC(=O)c2sc3nccc4c3c2NC(=O)N4c2cnc(OC(C)C)cc2C)C1 (single isomer, unassigned) [Example 789, (R)—N-(1-Acryloylpiperidin-3-yl)-5-(*S)-(6-isopropoxy-4-methylpyridin-3-yl)-4-oxo-4,5-dihydro-3H-1-thia-3,5,8-triazaacenaphthylene-2-carboxamide] | 8.1 | –
13 | Cc1nc(Oc2ccccc2)ccc1N1C(=O)Nc2c(C(=O)N[C@@H]3CCOC3)sc3nccc1c23 (single isomer, unassigned) [Example 793, (R)-5-(*S)-(2-Methy-6-phenoxypyridin-3-yl)-4-oxo-N-(tetrahydrofuran-3-yl)-4,5-dihydro-3H-1-thia-3,5,8-triazaacenaphthylene-2-carboxamide] | 6.8 | –
14 | Cc1cc(OC(C)C)ncc1N1C(=O)Nc2c(C(=O)N[C@@H]3CCCNC3)sc3nccc1c23 (single isomer, unassigned) [Example 794, (R)-5-(*S)-(6-Isopropoxy-4-methylpyridin-3-yl)-4-oxo-N-(piperidin-3-yl)-4,5-dihydro-3H-1-thia-3,5,8-triazaacenaphthylene-2-carboxamide] | 6.5 | –
15 | Cc1cc(OC2CCCC2)ncc1N1C(=O)Nc2c(C(=O)N[C@@H]3CCNC3)sc3nccc1c23 (single isomer, unassigned) [Example 797, (R)-5-(*S)-(6-(Cyclopentyloxy)-4-methylpyridin-3-yl)-4-oxo-N-(pyrrolidin-3-yl)-4,5-dihydro-3H-1-thia-3,5,8-triazaacenaphthylene-2-carboxamide] | 6.3 | –
16 | Cc1cc(OCC(C)C)ncc1N1C(=O)Nc2c(C(=O)N[C@@H]3CCNC3)sc3nccc1c23 (single isomer, unassigned) [Example 798, (R)-5-(*S)-(6-Isobutoxy-4-methylpyridin-3-yl)-4-oxo-N-(pyrrolidin-3-yl)-4,5-dihydro-3H-1-thia-3,5,8-triazaacenaphthylene-2-carboxamide] | 6.3 | –
17 | C=CC(=O)N1CCC[C@@H](NC(=O)c2sc3nccc4c3c2NC(=O)N4c2cnc(OC(C)C)cc2C)C1 (single isomer, unassigned) [Example 804, (R)—N-(1-Acryloylpiperidin-3-yl)-5-(*R)-(6-isopropoxy-4-methylpyridin-3-yl)-4-oxo-4,5-dihydro-3H-1-thia-3,5,8-triazaacenaphthylene-2-carboxamide] | 6.1 | –
18 | Cc1cc(OC(C)C)ncc1N1C(=O)Nc2c(C(=O)N[C@@H]3CCCNC3)sc3nccc1c23 (single isomer, unassigned) [Example 806, (R)-5-(*R)-(6-Isopropoxy-4-methylpyridin-3-yl)-4-oxo-N-(piperidin-3-yl)-4,5-dihydro-3H-1-thia-3,5,8-triazaacenaphthylene-2-carboxamide] | <6 | –
19 | C=CC(=O)N1CCC[C@@H](NC(=O)c2sc3nccc4c3c2NC(=O)N4c2ccc(OC3CCOCC3)cc2C)C1 (single isomer, unassigned) [Example 813, (R)—N-(1-Acryloylpiperidin-3-yl)-5-(*S)-(2-methyl-4-((tetrahydro-2H-pyran-4-yl)oxy)phenyl)-4-oxo-4,5-dihydro-3H-1-thia-3,5,8-triazaacenaphthylene-2-carboxamide] | – | > 1000
20 | C=CC(=O)N1CCC[C@@H](NC(=O)c2sc3nccc4c3c2NC(=O)N4c2ccc(OC3CCOCC3)cc2C)C1 (single isomer, unassigned) [Example 814, (R)—N-(1-Acryloylpiperidin-3-yl)-5-(*R)-(2-methyl-4-((tetrahydro-2H-pyran-4-yl)oxy)phenyl)-4-oxo-4,5-dihydro-3H-1-thia-3,5,8-triazaacenaphthylene-2-carboxamide] | <6 | –
21 | C=CS(=O)(=O)N1CC[C@@H](NC(=O)c2sc3nccc4c3c2NC(=O)N4c2ccc(Oc3ccccc3)cc2C)C1 (single isomer, unassigned) [Example 834, (R)-5-(*S)-(2-Meth-4-phenoxyphenyl)-4-oxo-N-(1-(vinylsulfonyl)pyrrolidin-3-yl)-4,5-dihydro-3H-1-thia-3,5,8-triazaacenaphthylene-2-carboxamide] | 8.0 | –
22 | Cc1cc(Oc2ccccc2)ccc1N1C(=O)Nc2c(C(=O)N[C@@H]3CCCN(C(=O)/C=C/CN4CCCC4)C3)sc3nccc1c23 (single isomer, unassigned) [Example 845, (R,E)-5-(*S)-(2-Methyl-4-phenoxyphenyl)-4-oxo-N-(1-(4-(pyrrolidin-1-yl)but-2-enoyl)piperidin-3-yl)-4,5-dihydro-3H-1-thia-3,5,8-triazaacenaphthylene-2-carboxamide] | 7.6 | –
